# Data from publication PMC3441526, “KCN1, a Novel Synthetic Sulfonamide Anticancer Agent: In Vitro and In Vivo Anti-Pancreatic Cancer Activities and Preclinical Pharmacology” (PLoS ONE, 2012).
# Legend:
# [1] = Tolerability on repeated intraperitoneal dosing; assay type: in vivo, mice
# HPAC cells [2] = test: Cell cycle measurement by flow cytometry; assay type: cell-based, human; details: 24 h
# Procedure: (§1) To determine the effect of KCN1 on the cell cycle, cells (2–3×10^5) were exposed to the test compounds (0, 5, 12.5 or 50 µM) and incubated for 24 h prior to analysis. Cells were trypsinized, washed with PBS, and fixed in 1.5 mL of 95% ethanol at 4°C overnight, followed by incubation with RNAse and staining with propidium iodide (Sigma). The DNA content was determined by flow cytometry, [47].
# Mia Paca-2 cells [3] = test: Cell cycle measurement by flow cytometry; assay type: cell-based, human; details: for cell cycle distribution, G1 / cell cycle distribution, G2/M / cell cycle distribution, S: 24 h
# Procedure: as §1
# Panc-1 cells [4] = test: Cell cycle measurement by flow cytometry; assay type: cell-based, human; details: for cell cycle distribution, G1 / cell cycle distribution, G2/M / cell cycle distribution, S: 24 h
# Procedure: as §1
# BxPC3 cells [5] = test: Cell cycle measurement by flow cytometry; assay type: cell-based, human; details: for cell cycle distribution, G1 / cell cycle distribution, G2/M / cell cycle distribution, S: 24 h
# Procedure: as §1
# Panc-1 xenograft tumors = test: Subcutaneous xenograft tumor model; assay type: in vivo, nude mice (nu/nu); details: for tumor growth inhibition: 5 days/week, Day 21
# Procedure: (§2) The animal procedures were performed under approval by the Institutional Animal Use and Care Committee of Texas Tech University Health Sciences Center (IACUC # 10031, PHS Assurance # A 3056-01, USDA Registration # 74-R-0050, REF # 039436). Female athymic pathogen-free nude mice (nu/nu, 4–6 weeks) were purchased from Charles River Laboratories International Inc. (Wilmington, MA). To establish Panc-1 and Mia Paca-2 human pancreatic cancer xenograft tumors, cultured Panc-1 (5×10^6) and Mia Paca-2 (1×10^7) cells were harvested from monolayer cultures, washed twice with serum-free medium, re-suspended and injected subcutaneously (total volume 0.2 mL) into the left inguinal area of the mice. All animals were monitored for activity, physical condition, body weight, and tumor growth. Tumor size was determined every other day by caliper measurement of two perpendicular diameters of the implant. Tumor volume (in mm^3) was calculated by the formula, ½ (a × b ^2) where “a” is the long diameter and “b” is the short diameter, [47].
# (§3) The animals bearing human cancer xenografts were randomly divided into various treatment groups and a control group (7–10 mice/group). The untreated control group received the vehicle only. For the Panc-1 and Mia Paca-2 xenograft models, KCN1 was dissolved in a 1∶1 solution of Cremophor EL (Sigma, St. Louis, MO): ethanol (200 Proof) by heating to 80–90°C in a water bath and vortexing, then diluted with an equal volume of phosphate-buffered saline, and was administered by intraperitoneal injection at doses of 30 and 60 mg/kg/d, 5d/wk for several weeks. Treatment was initiated once tumor volume reached ∼100 mm^3. The dosage regimen was decided based upon IC50 values obtained from in-vitro studies and adjustments for body surface and weight of the treated animal.
# [6] = system: Mia Paca-2 xenograft tumors; test: Subcutaneous xenograft tumor model; assay type: in vivo, nude mice (nu/nu); details: for decrease of tumor growth: 5 days/wk for 6 weeks
# Procedure: as §2, §3
# HPAC cells [7] = test: MTT cell survival assay; assay type: cell-based; details: Homo sapiens, 72 h
# Procedure: (§4) The effect of the test compound on human pancreatic cancer cell viability, expressed as the percentage of cell survival, was determined using the MTT assay [45]–[47]. Cells were grown in 96-well plates at 4–5×10^3 cells per well and exposed to different concentrations of the test compound (0, 1, 5, 12.5, 25, 50 or 100 µM). After incubation for different times, 10 µL of the MTT solution (5 mg/mL; Sigma; St. Louis, MO) were added into each well. The plates were incubated for 2–4 hr at 37°C. The supernatant was then removed and the formazan crystals were dissolved with 100 µL of DMSO. The absorbance at 570 nm was recorded using an OPTImax microplate reader (Molecular Devices; Sunnyvale, CA). The cell survival percentages were calculated by dividing the mean optical density (OD) of compound-containing wells by that of DMSO-containing control wells. Three separate experiments were accomplished to determine the IC50 values.
# Mia Paca-2 cells [8] = test: MTT cell survival assay; assay type: cell-based; details: Homo sapiens
# Procedure: as §4
# Panc-1 cells [9] = test: MTT cell survival assay; assay type: cell-based; details: Homo sapiens
# Procedure: as §4
# BxPC3 cells [10] = test: MTT cell survival assay; assay type: cell-based; details: Homo sapiens, BXPC-3
# Procedure: as §4
smiles,measurement,setting,value
"COc1ccc(S(=O)(=O)N(Cc2ccc3c(c2)C=CC(C)(C)O3)c2ccccc2)cc1OC [KCN1, 3,4-dimethoxy-N-[(2,2-dimethyl-2H-chromen-6-yl)methyl]-N-phenylbenzenesulfonamide]","pathological examination of brain, kidneys, GI tract or lungs at necropsy",[1]; data not shown,no ultra-structural changes
same,"signs of toxicity, behavior and appearance",[1]; i.p. up to 60 mg/kg daily for up to 12 weeks,no apparent signs of toxicity
same,tolerability of regimen,[1]; i.p. up to 60 mg/kg daily in cremophor:ethanol for up to 12 weeks,well tolerated
same,time to reversal of liver swelling after discontinuation of treatment,"[1]; mouse, in vivo",2–3 weeks
same,blood cell populations and blood chemistry,"[1]; preliminary analyses, data not shown",within normal limits
same,liver finding at autopsy,"[1]; tissue edema with bile duct stasis, no hepatocyte death, may be caused by cremophor:ethanol formulation",Swelling was observed in the livers
same,"cell cycle distribution, G1",HPAC cells [2]; 5 µM,62.1±4.9
same,"cell cycle distribution, G2/M",HPAC cells [2]; 5 µM,11.8±1.2
same,"cell cycle distribution, S",HPAC cells [2]; 5 µM,26.1±3.8
same,"cell cycle distribution, G1",HPAC cells [2]; 12.5 µM,66.8±1.6
same,"cell cycle distribution, G2/M",HPAC cells [2]; 12.5 µM,10.9±1.3
same,"cell cycle distribution, S",HPAC cells [2]; 12.5 µM,22.4±1.6
same,"cell cycle distribution, G1",HPAC cells [2]; 50 µM,68.8±2.7
same,"cell cycle distribution, G2/M",HPAC cells [2]; 50 µM,11.5±1.4
same,"cell cycle distribution, S",HPAC cells [2]; 50 µM,19.7±1.4
same,concentration at which G1 arrest begins,HPAC cells [2],5 µM
same,"cell cycle distribution, G1","Mia Paca-2 cells [3]; Mia Paca-2, 5 µM",50.4±3.6
same,"cell cycle distribution, G2/M","Mia Paca-2 cells [3]; Mia Paca-2, 5 µM",31.6±1.9
same,"cell cycle distribution, S","Mia Paca-2 cells [3]; Mia Paca-2, 5 µM",18.0±0.9
same,"cell cycle distribution, G1","Mia Paca-2 cells [3]; Mia Paca-2, 12.5 µM",55.2±1.2
same,"cell cycle distribution, G2/M","Mia Paca-2 cells [3]; Mia Paca-2, 12.5 µM",24.6±0.9
same,"cell cycle distribution, S","Mia Paca-2 cells [3]; Mia Paca-2, 12.5 µM",20.2±1.7
same,"cell cycle distribution, G1","Mia Paca-2 cells [3]; Mia Paca-2, 50 µM",58.9±3.9
same,"cell cycle distribution, G2/M","Mia Paca-2 cells [3]; Mia Paca-2, 50 µM",20.3±1.1
same,"cell cycle distribution, S","Mia Paca-2 cells [3]; Mia Paca-2, 50 µM",20.8±1.5
same,concentration at which G1 arrest begins,"Mia Paca-2 cells [3]; Mia Paca-2, 24 h",5 µM
same,"cell cycle distribution, G1","Panc-1 cells [4]; Panc-1, 5 µM",40.3±2.2
same,"cell cycle distribution, G2/M","Panc-1 cells [4]; Panc-1, 5 µM",30.9±0.8
same,"cell cycle distribution, S","Panc-1 cells [4]; Panc-1, 5 µM",28.8±3.2
same,"cell cycle distribution, G1","Panc-1 cells [4]; Panc-1, 12.5 µM",49.8±0.8
same,"cell cycle distribution, G2/M","Panc-1 cells [4]; Panc-1, 12.5 µM",28.8±1.6
same,"cell cycle distribution, S","Panc-1 cells [4]; Panc-1, 12.5 µM",21.4±0.9
same,"cell cycle distribution, G1","Panc-1 cells [4]; Panc-1, 50 µM",53.3±2.3
same,"cell cycle distribution, G2/M","Panc-1 cells [4]; Panc-1, 50 µM",29.1±1.4
same,"cell cycle distribution, S","Panc-1 cells [4]; Panc-1, 50 µM",17.6±0.9
same,concentration at which G1 arrest begins,"Panc-1 cells [4]; Panc-1, 24 h",12.5 µM
same,"cell cycle distribution, G1","BxPC3 cells [5]; BXPC3, 5 µM",52.9±4.1
same,"cell cycle distribution, G2/M","BxPC3 cells [5]; BXPC3, 5 µM",26.4±1.3
same,"cell cycle distribution, S","BxPC3 cells [5]; BXPC3, 5 µM",20.8±3.8
same,"cell cycle distribution, G1","BxPC3 cells [5]; BXPC3, 12.5 µM",65.1±3.5
same,"cell cycle distribution, G2/M","BxPC3 cells [5]; BXPC3, 12.5 µM",17.4±1.9
same,"cell cycle distribution, S","BxPC3 cells [5]; BXPC3, 12.5 µM",17.5±2.1
same,"cell cycle distribution, G1","BxPC3 cells [5]; BXPC3, 50 µM",70.8±2.0
same,"cell cycle distribution, G2/M","BxPC3 cells [5]; BXPC3, 50 µM",15.5±1.7
same,"cell cycle distribution, S","BxPC3 cells [5]; BXPC3, 50 µM",13.7±0.9
same,concentration at which G1 arrest begins,"BxPC3 cells [5]; BxPC3, 24 h",5 µM
same,tumor growth inhibition,Panc-1 xenograft tumors; 30 mg/kg i.p.,approximately 46%
same,tumor growth inhibition,Panc-1 xenograft tumors; 60 mg/kg i.p.,61%
same,body weight versus controls,Panc-1 xenograft tumors; 30 or 60 mg/kg i.p.,no significant differences in body weights
same,decrease of tumor growth,[6]; 30 mg/kg i.p.,about 43%
same,decrease of tumor growth,[6]; 60 mg/kg i.p.,~57%
same,body weight versus controls,[6]; 30 or 60 mg/kg i.p.,no significant differences in body weights
same,inhibition at 100 µM,"HPAC cells [7]; 100 µM, read-out: inhibition of cell growth",83%
same,IC50,"HPAC cells [7]; MTT, read-out: Cytotoxicity: IC50",17.91 ± 0.12 µM
same,inhibition at 100 µM,"Mia Paca-2 cells [8]; Mia Paca-2, 100 µM, 72 h, read-out: inhibition of cell growth",61%
same,IC50,"Mia Paca-2 cells [8]; Mia Paca-2, 72 h, MTT, read-out: Cytotoxicity: IC50",69.9 ± 2.12 µM
same,inhibition at 100 µM,"Panc-1 cells [9]; Panc-1, 100 µM, 72 h, read-out: inhibition of cell growth",53%
same,IC50,"Panc-1 cells [9]; Panc-1, 72 h, MTT, read-out: Cytotoxicity: IC50",100 ± 2.35 µM
same,inhibition at 100 µM,"BxPC3 cells [10]; BxPC3, 100 µM, 72 h, read-out: inhibition of cell growth",81%
same,IC50,"BxPC3 cells [10]; BxPC3, 72 h, MTT, read-out: Cytotoxicity: IC50",14.62 ± 0.1 µM
